Results reported in patent publication US20220273016A1, “HUMAN MILK OLIGOSACCHARIDES FOR CONTROL OF DIETARY RESPONSE AND METABOLIC PHENOTYPE” (The Regents of the University of California, priority 2019, published 2022).
“Also recorded” adds a separate entry of the source.

Key:
[1] = Body weight and energy intake in mice fed a high-fat diet with 2′-FL in drinking water; type: in vivo, Male C57/BL6 mice; details: 2′-FL 10% (w/v) in drinking water, 6 wk, vs HF group
Procedure: Animals were maintained and handled in accordance with protocols approved by the Institutional Animal Care and Use Committee (University of California, Davis). Male C57/BL6 mice (n=6/group; 6 week old, Harlan, San Diego, Calif.) were split into three weight-matched groups and fed either a low-fat (LF; 10% kcal as fat), high-fat (HF; 45% kcal as fat), or HF diet with 2′-FL (HF_2′-FL) at 10% (w/v) in drinking water for 6 wk. All animals were housed individually at 22° C. with 12 h:12 h light-dark cycles. Body weight and food intake were measured twice a week. Statistical analysis was performed using Prism software (Prism 8.1.2; GraphPad Software). Six-week HF feeding increased energy intake compared to the LF groups but without statistical significance (FIG. 1B). […] For FIGS. 1A and 1B, data are presented as means±SEMs. ROUT test was used to exclude outliers. Differences were considered significant if P<0.05.

[2] = Body composition (EchoMRI fat and lean mass) and adipocyte size in mice fed LF or HF with or without 10% 2′-FL; type: in vivo; details: 10% 2′-FL supplementation diet, 8 weeks
Procedure: Body composition for fat and lean mass (FIGS. 2A and 2B) was analyzed in live animals using EchoMRI-100 ™ from Echo Medical Systems (Houston, Tex.) every two weeks in mice fed an LF or HF with or without 10% 2′-FL supplementation. To measure the size of adipocytes (FIG. 2C), mesenteric adipose tissue collected at euthanasia was fixed in 10% neutral-buffered formalin (Thermo Fisher Scientific, Waltham, Mass.) overnight and transferred to 70% ethanol for one day. Afterwards, the tissues were processed in a routine manner for paraffin sections (Tissue Tek VIP Tissue Processor; Sakura Finetek USA, Torrance, Calif.). Paraffin-embedded sections (5 μm) were cut and stained with H&E (Sigma-Aldrich) for microscopic examination (Olympus BX60, Waltham, Mass.) at 20× magnification. To quantitate adipocyte size (FIG. 2C), the H&E-stained sections were analyzed using the ImageJ software (National Institutes of Health, Bethesda, Md.). For hepatic gene expression of peroxisome proliferator-activated receptor γ (PPAR γ) and sterol regulatory element binding protein-1c (SREBP-1c) (FIGS. 2D and 2E), total RNA from liver samples was extracted via the TRIzol method (Life Technologies, Grand Island, N.Y.). cDNAs were synthesized from […] of purified RNA samples using iScript cDNA synthesis kit (Bio-Rad, Hercules, Calif.) following the manufacturer's protocol. Real-time PCR was performed with the Quantstudio 6 Flex real-time PCR machine using SyberGreen master mix (Life Technologies) for detection. R-Actin and GAPDH were used as housekeeping genes. Genes of interest were analyzed according to the 2^−ΔΔT method and compared with control samples.
For FIGS. 2A-2E, statistical analysis was performed by using Prism software (Prism 8.4; GraphPad Software, La Jolla, Calif.). Data are presented as means±SEMs. ROUT test was used to exclude outliers. Differences were considered significant if P<0.05.

[3] = system: peroxisome proliferator-activated receptor γ (PPAR γ); assay: Hepatic gene expression of PPARγ (real-time PCR); type: in vivo, mice; details: 10% 2′-FL supplementation diet, 8 weeks
Procedure: (§1) Body composition for fat and lean mass (FIGS. 2A and 2B) was analyzed in live animals using EchoMRI-100 ™ from Echo Medical Systems (Houston, Tex.) every two weeks in mice fed an LF or HF with or without 10% 2′-FL supplementation. To measure the size of adipocytes (FIG. 2C), mesenteric adipose tissue collected at euthanasia was fixed in 10% neutral-buffered formalin (Thermo Fisher Scientific, Waltham, Mass.) overnight and transferred to 70% ethanol for one day. Afterwards, the tissues were processed in a routine manner for paraffin sections (Tissue Tek VIP Tissue Processor; Sakura Finetek USA, Torrance, Calif.). Paraffin-embedded sections (5 μm) were cut and stained with H&E (Sigma-Aldrich) for microscopic examination (Olympus BX60, Waltham, Mass.) at 20× magnification. To quantitate adipocyte size (FIG. 2C), the H&E-stained sections were analyzed using the ImageJ software (National Institutes of Health, Bethesda, Md.). […] Genes of interest were analyzed according to the 2^−ΔΔT method and compared with control samples. […]

[4] = system: sterol regulatory element binding protein-1c (SREBP-1c); assay: Hepatic gene expression of SREBP-1c (real-time PCR); type: in vivo, mice; details: 10% 2′-FL supplementation diet, 8 weeks
Procedure: as §1

[5] = CCK feeding study (food intake after i.p. CCK); type: in vivo, mice; details: HF + 10% 2′-FL, CCK i.p. vs saline, 6 h fast
Procedure: (§2) After 4 weeks on respective diets, 2′-FL sensitivity to the satiating effect of the gut peptide CCK was tested (FIG. 3A). Experiments were performed at the onset of the dark phase. Mice were fasted on wire-bottom cages for 6 h during the light phase. At the onset of the dark phase, CCK (octapeptide, sulfated, Bachem, Torrance, Calif., 100 μl at […]; i.p.) or saline (100 μl; i.p.) was administered. Food was placed in the cage and food intake recorded after 20 min. After 6 weeks of respective diets, c-Fos expression in hindbrain was determined. (FIGS. 3B and 3C). Mice were fasted for 4 h, ip injected with CCK ([…]), and euthanized using deep anesthesia induced with pentobarbital (Fatal Plus, Vortech Pharmaceuticals, Dearborn, Mich., USA; 300 mg/kg; i.p.). The hindbrain was collected and post-fixed in 4% paraformaldehyde (Electron Microscopy Sciences, Hatfield, Pa.). Hindbrains were cryosectioned at 30 μm thickness and stained for c-Fos protein expression in the NTS and AP regions. […] Images were acquired using a confocal microscope (Leica TCS SP8 STED 3×; Leica, Wetzlar, Germany) and quantified in a blinded manner using Imaris Software (Bitplane, Zurich, Switzerland). […]

c-Fos = c-Fos expression in hindbrain (NTS and AP) after CCK injection; type: in vivo, mice; details: 10% 2′-FL supplementation, CCK i.p.
Procedure: as §2

[6] = Gut permeability of cecum in Ussing chambers (FD-4 flux); type: in vivo, mice; details: 10% 2′-FL supplementation diet, 8 weeks, flux at 90 min
Procedure: (§3) To measure gut permeability (FIGS. 4A and 4B), a section of cecum was opened along the mesenteric border and mounted in Ussing chambers (Physiologic Instruments, San Diego, Calif.), exposing 0.3 cm^2 of tissue surface area to 2.5 ml of oxygenated Krebs-glucose (10 mM) and Krebs-mannitol (10 mM) at 37° C. on the serosal and luminal sides, respectively. The paracellular pathway and transcellular pathway were measured as the flux of FITC-4000 (FD-4; Sigma-Aldrich) and horseradish peroxidase (HRP Type VI; Sigma Aldrich), respectively. FD-4 ([…]) and HRP ([…]) were added to the mucosal chamber, and samples were collected from the serosal chamber every 30 min for 2 h. The concentration of FD-4 was measured via fluorescence at excitation of 485 nm and emission of 538 nm. O-dianisidine substrate was used to detect HRP at absorbance 450 nm. Data are shown as flux at 90 min. Gene expression of IL-22 in the ileum (FIG. 4C) and MCP-1 (FIG. 4E) in adipose tissue were measured as described in Example 2. LBP levels (FIG. 4D) were detected in plasma via enzyme-linked immunosorbent assay according to manufacturer's recommendation (Biometec). […] For FIGS. 4A-4E, statistical analysis was performed by using Prism software (Prism 8.4; GraphPad Software, La Jolla, Calif.). Data are presented as means SEMs. ROUT test was used to exclude outliers. Differences were considered significant if P<0.05.

[7] = system: lipopolysaccharide-binding protein (LBP); assay: Plasma LBP level by enzyme-linked immunosorbent assay; type: in vivo, mice; details: HF + 10% 2′-FL in drinking water, 6 weeks
Procedure: as §3

[8] = system: monocyte chemoattractant protein-1 (MCP-1); assay: Gene expression of MCP-1 in adipose tissue (real-time PCR); type: in vivo, mice; details: HF + 10% 2′-FL in drinking water, 6 weeks
Procedure: as §3

2′-fucosyllactose [2′-FL]
energy intake ([1]; HF diet (45% kcal as fat)): suppressed
body weight ([1]; HF diet): lower body weight compared with the HF group
adipogenesis (adipocyte size in visceral adipose tissue) [2]: suppresses adipogenesis
adiposity (fat body mass) [2]: reduced adiposity
lean mass [2]: preserving lean mass
gene expression of PPAR γ in the liver [3]: downregulates
gene expression of SREBP-1c in the liver [4]: downregulates
sensitivity to the satiating effect of CCK (food intake after 20 min) [5]: restores sensitivity to CCK
intestinal satiety signals (c-Fos immunopositive cells in NTS and AP) (c-Fos): restores intestinal satiety signals
paracellular permeability (FD-4 flux in cecum) [6]: decreased paracellular permeability
circulating LPB levels [7]: reduced circulating LPB levels
expression of inflammatory cytokines in adipocytes (MCP-1 gene expression in adipose tissue) [8]: significant decrease of MCP-1 gene expression; also recorded: systemically lowered expression of inflammatory cytokines in adipocytes
